Experimental data reported in patent publication US5602100A, “Dermorphin analogs having pharmacological activity” (priority 1988, dated 1997).
Non-standard residues stand in square brackets, D forms with d. Residues, ends and D or L forms follow the SMILES beside them. Orn = NCCC[C@H](N)C(=O)O; Nva = CCC[C@H](N)C(=O)O

What was measured:
μ-opioid receptor = molecular target: T1, μ-opioid receptor (Rattus norvegicus, UniProt P33535); test: biochemical; assay type: binding
T1 construct: displacement of the radioligands from the rat brain membrane preparations; from tissue; host or cells: rat brain membrane preparations
T1 sequence (P33535 whole entry): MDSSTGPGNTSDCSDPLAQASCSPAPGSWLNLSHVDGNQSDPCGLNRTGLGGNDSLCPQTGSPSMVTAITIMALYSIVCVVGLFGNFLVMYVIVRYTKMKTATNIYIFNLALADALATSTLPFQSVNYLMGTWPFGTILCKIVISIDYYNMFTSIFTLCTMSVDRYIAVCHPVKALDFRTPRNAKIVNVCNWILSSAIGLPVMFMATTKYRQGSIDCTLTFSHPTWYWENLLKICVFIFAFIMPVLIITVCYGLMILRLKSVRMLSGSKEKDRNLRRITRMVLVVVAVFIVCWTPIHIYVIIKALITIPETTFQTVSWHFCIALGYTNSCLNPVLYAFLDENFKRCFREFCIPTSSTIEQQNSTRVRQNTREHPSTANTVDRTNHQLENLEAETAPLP

δ-opioid receptor = molecular target: T2, δ-opioid receptor (Rattus norvegicus, UniProt P33533); test: biochemical; assay type: binding
T2 construct: displacement of the radioligands from the rat brain membrane preparations; from tissue; host or cells: rat brain membrane preparations
T2 sequence (P33533 whole entry): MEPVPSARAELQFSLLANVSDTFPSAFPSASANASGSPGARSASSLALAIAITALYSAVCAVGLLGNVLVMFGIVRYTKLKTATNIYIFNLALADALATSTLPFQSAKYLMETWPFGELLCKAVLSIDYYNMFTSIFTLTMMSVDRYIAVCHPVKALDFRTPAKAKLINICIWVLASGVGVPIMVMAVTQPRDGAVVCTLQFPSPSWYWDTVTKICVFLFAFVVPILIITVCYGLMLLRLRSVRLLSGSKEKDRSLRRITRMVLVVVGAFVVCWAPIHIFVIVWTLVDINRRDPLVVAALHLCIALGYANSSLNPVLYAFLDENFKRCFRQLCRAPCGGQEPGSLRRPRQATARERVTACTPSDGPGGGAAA

PBQ-induced writhing = test: Mouse writhing test (PBQ); assay type: in vivo; details: dose reducing the number of writhes by 50%
Protocol: The mouse writhing test detects both peripherally and centrally mediated analgesic effects. The test procedure is described in Siegmund et al., Proc. Soc. Exp. Biol. Med., 95, p. 729 (1957). In this test, a control group of albino mice was injected intraperitoneally with 0.3 ml/20 g body weight of a 0.02% solution of 2-phenyl-1,4-benzoquinone (PBQ). The writhing and contortional movements of the mice over the following 15 minutes were recorded. A second group of mice was given a dose of a synthetic dermorphin analog according to this invention, then allowed to wait a period of time before being administered the PBQ injection. The average number of writhes was then recorded and compared to the control group. The results of this test are expressed as the dosage of peptide that reduces the number of writhes by 50% at a given time interval (referred to as ED50).

[1] = Respiration rate (respiratory depression); assay type: in vivo, rat; details: control 142 ± 5
Protocol: In addition to the mouse writhing data, respiratory depression was measured in certain treated mice. Respiratory depression is a commonly observed side effect characteristic of centrally-acting opiates. These reulsts are expressed in Table 5.

hot plate stimulus = test: Mouse hot plate test; assay type: in vivo
Protocol: The mouse hot plate test is an assay which only detects centrally-mediated analgesic effects. This test was carried out using the protocol described in G. Woolfe and A. MacDonald, J. Pharmacol. Exp. Ther., 80, p. 300 ([…]).
Since most of the peptides of the invention were not potent centrally, it was impossible to determine an ED50 value. […] A result is considered insignificant if 30% of mice or lower have responded.

| SMILES | Ki (μ-opioid receptor) [nM] | Ki^δ /Ki^μ (μ-opioid receptor) | Ki (δ-opioid receptor) [nM] | PBQ (20 min.) ED50 (PBQ-induced writhing) | Breaths per min. ([1]; dose 30 mg/kg) [breaths per min.] | Breaths per min. ([1]; dose 100 mg/kg) [breaths per min.] | % of animals showing a 50% increase (hot plate stimulus; dose 40 mg/kg, time 60 min.) [%] | % of animals showing a 50% increase (hot plate stimulus; dose 100 mg/kg, time 60 min.) [%] | % of animals showing a 50% increase (hot plate stimulus; dose 40 mg/kg, time 120 min.) [%] | % of animals showing a 50% increase (hot plate stimulus; dose 40 mg/kg, time 30 min.) [%] | % of animals showing a 50% increase (hot plate stimulus; dose 100 mg/kg, time 50 min.) [%] | % of animals showing a 50% increase (hot plate stimulus; dose 100 mg/kg, time 30 min.) [%] |
| --- | --- | --- | --- | --- | --- | --- | --- | --- | --- | --- | --- | --- |
| N=C(N)NCCC[C@H](NC(=O)[C@H](Cc1ccccc1)NC(=O)[C@@H](CCCNC(=N)N)NC(=O)[C@@H](N)Cc1ccc(O)cc1)C(N)=O [BCH-1766, H-Tyr-D-Arg-Phe-Arg-NH2] (H-Y[dR]FR-NH2) | 98.8 | 121 | 12000 |  |  |  |  |  |  |  |  |  |
| CCC[C@H](NC(=O)[C@H](Cc1ccccc1)NC(=O)[C@@H](CCCNC(=N)N)NC(=O)[C@@H](N)Cc1ccc(O)cc1)C(N)=O [BCH-1788, H-Tyr-D-Arg-Phe-Nva-NH2] (H-Y[dR]F[Nva]-NH2) | 11.7 | > 216 | > 2530 | 1.3 mg/kg | 163 ± 9 | 125 ± 4 | 45 | 60 |  |  |  |  |
| CC[C@@H](C)[C@@H](NC(=O)[C@@H](N)Cc1ccc(O)cc1)C(=O)N[C@@H](Cc1ccccc1)C(=O)N[C@@H](CCCCN)C(N)=O [BCH-2203, H-Tyr-D-Ile-Phe-Lys-NH2] (H-Y[dI]FK-NH2) | 7.49 | > 338 | > 2530 | 0.8 mg/kg |  |  |  |  | 80 |  |  |  |
| CC(C)C[C@@H](NC(=O)[C@@H](N)Cc1ccc(O)cc1)C(=O)N[C@@H](Cc1ccccc1)C(=O)N[C@@H](CCCCN)C(N)=O [BCH-2207, H-Tyr-D-Leu-Phe-Lys-NH2] (H-Y[dL]FK-NH2) | 168 | > 15 | > 2530 |  |  |  |  |  |  | 20 | 0 |  |
| NCCCC[C@H](NC(=O)[C@H](Cc1ccccc1)NC(=O)[C@@H](CO)NC(=O)[C@@H](N)Cc1ccc(O)cc1)C(N)=O [BCH-2209, H-Tyr-D-Ser-Phe-Lys-NH2] (H-Y[dS]FK-NH2) | 24.1 | > 105 | > 2530 | 2.8 mg/kg |  |  |  |  |  | 40 |  | 40 |
| C[C@@H](NC(=O)[C@@H](N)Cc1ccc(O)cc1)C(=O)N[C@@H](Cc1ccccc1)C(=O)N[C@@H](CCCN)C(N)=O [BCH-2219, H-Tyr-D-Ala-Phe-Orn-NH2] (H-Y[dA]F[Orn]-NH2) | 10.7 | 924.51 | 9880 | ~ 1 mg/Kg |  |  |  |  |  | 60 |  |  |
| CC[C@@H](C)[C@@H](NC(=O)[C@@H](N)Cc1ccc(O)cc1)C(=O)N[C@@H](Cc1ccccc1)C(=O)N[C@@H](CCCN)C(N)=O [BCH-2456, H-Tyr-D-Ile-Phe-Orn-NH2] (H-Y[dI]F[Orn]-NH2) | 4.49 | 952.35 | 4280 | 0.6 mg/kg |  |  | 40 | 50 |  |  |  |  |
| NCCC[C@H](NC(=O)[C@H](Cc1ccccc1)NC(=O)[C@@H](Cc1ccccc1)NC(=O)[C@@H](N)Cc1ccc(O)cc1)C(N)=O [BCH-2457, H-Tyr-D-Phe-Phe-Orn-NH2] (H-Y[dF]F[Orn]-NH2) | 7.39 | 333.37 | 2460 | 1.8 mg/kg |  |  | 40 |  |  |  |  |  |
| CC(C)[C@@H](NC(=O)[C@@H](N)Cc1ccc(O)cc1)C(=O)N[C@@H](Cc1ccccc1)C(=O)N[C@@H](CCCN)C(N)=O [BCH-2458, H-Tyr-D-Val-Phe-Orn-NH2] (H-Y[dV]F[Orn]-NH2) | 13.3 | 658.27 | 8780 | 1.0 mg/kg |  |  |  | 55 |  | 30 |  |  |
| CC(C)C[C@@H](NC(=O)[C@@H](N)Cc1ccc(O)cc1)C(=O)N[C@@H](Cc1ccccc1)C(=O)N[C@@H](CCCN)C(N)=O [BCH-2459, H-Tyr-D-Leu-Phe-Orn-NH2] (H-Y[dL]F[Orn]-NH2) | 77.5 | 240.10 | 18600 |  |  |  |  |  |  |  |  |  |
| NCCCC[C@H](NC(=O)[C@H](Cc1ccccc1)NC(=O)[C@@H](Cc1ccccc1)NC(=O)[C@@H](N)Cc1ccc(O)cc1)C(N)=O [BCH-2460, H-Tyr-D-Phe-Phe-Lys-NH2] (H-Y[dF]FK-NH2) | 19 | 99.47 | 1900 | ~ 3 mg/Kg |  |  |  |  |  |  |  |  |
| NCCC[C@H](NC(=O)[C@H](Cc1ccccc1)NC(=O)[C@@H](CO)NC(=O)[C@@H](N)Cc1ccc(O)cc1)C(N)=O [BCH-2461, H-Tyr-D-Ser-Phe-Orn-NH2] (H-Y[dS]F[Orn]-NH2) | 13.2 | 1210.57 | 15900 | 0.7 mg/kg |  |  |  |  |  | 50 |  |  |
